Results: ChEMBL document CHEMBL3885881, “DrugMatrix”

Species: Rattus norvegicus
Test: DrugMatrix - Regimen: Daily Repeat
Type: toxicity, organism-based, Sprague-Dawley
Design: regimen Daily Repeat, gender Male, age 6-8 weeks
Conditions: in vivo, po, route oral GAVAGE, […]; for ABSOLUTE BASOPHIL / ABSOLUTE EOSINOPHIL / ABSOLUTE LYMPHOCYTE / ABSOLUTE MONOCYTE / ABSOLUTE SEGMENTED NEUTROPHIL / BASOPHIL / EOSINOPHIL / ERYTHROCYTE COUNT / HEMATOCRIT / HEMOGLOBIN / LEUKOCYTE COUNT / LYMPHOCYTE / MEAN CORPUSCULAR HEMOGLOBIN / MEAN CORPUSCULAR HEMOGLOBIN CONCENTRATION / MEAN CORPUSCULAR VOLUME / MONOCYTE / NEUTROPHIL / NUCLEATED RED BLOOD CELLS / PLATELET COUNT: tissue Blood; for ALANINE AMINOTRANSFERASE / ALBUMIN / ALKALINE PHOSPHATASE / ASPARTATE AMINOTRANSFERASE / BLOOD UREA NITROGEN / CARBON DIOXIDE / CHLORIDE / CHOLESTEROL / CREATINE PHOSPHOKINASE / CREATININE / GLUCOSE / LACTATE DEHYDROGENASE / LIPASE / PHOSPHORUS / POTASSIUM / SODIUM / TOTAL BILIRUBIN / TOTAL PROTEIN / URIC ACID: tissue Plasma
[1] = 0 mg/kg, 72 h, dose level Control, time 3 day
[2] = 0 mg/kg, 120 h, dose level Control, time 5 day
[3] = 3 mg/kg, 72 h, dose level Low, time 3 day

Which “ABSOLUTE BASOPHIL” value [1] does the source give for Cc1cccc(Nc2ccncc2S(=O)(=O)NC(=O)NC(C)C)c1 [TORSEMIDE] here?
Its value is 0 CELLS/uL.

And the “ABSOLUTE EOSINOPHIL” value [1]?
The value was 41.83 CELLS/uL.

And the “ABSOLUTE LYMPHOCYTE” value [1]?
The value was 8545.5 CELLS/uL.

What about the “ABSOLUTE MONOCYTE” value [1] of the same compound?
The value was 240 CELLS/uL.

What about the “ABSOLUTE SEGMENTED NEUTROPHIL” value [1] of the same compound?
The value was 906 CELLS/uL.

And the BASOPHIL [1]?
Its BASOPHIL is 0%.

And the EOSINOPHIL [1]?
Its EOSINOPHIL is 0.33%.

And the “ERYTHROCYTE COUNT” value [1]?
Its value is 5.6 x10E6/uL.

And the HEMATOCRIT [1]?
The HEMATOCRIT was 35.4%.

What about the HEMOGLOBIN [1] of the same compound?
The HEMOGLOBIN was 13.42 G/DL.

And the “LEUKOCYTE COUNT” value [1]?
Its value is 9.73 x10E3/uL.

And the LYMPHOCYTE [1]?
The LYMPHOCYTE was 87.83%.

And the “MEAN CORPUSCULAR HEMOGLOBIN” value [1]?
Its value is 23.98 pg.

What about the “MEAN CORPUSCULAR HEMOGLOBIN CONCENTRATION” value [1] of the same compound?
The value was 37.92 G/DL.

And the “MEAN CORPUSCULAR VOLUME” value [1]?
The value was 63.3 fL.

And the MONOCYTE [1]?
The MONOCYTE was 2.5%.

And the NEUTROPHIL [1]?
The NEUTROPHIL was 9.33%.

And the “NUCLEATED RED BLOOD CELLS” value [1]?
The value was 0 /100WBC.

And the “PLATELET COUNT” value [1]?
The value was 1032 x10E3/uL.

And the “ALANINE AMINOTRANSFERASE” value [1]?
The value was 72.83 u/L.

What about the ALBUMIN [1] of the same compound?
The ALBUMIN was 4 G/DL.

What about the “ALKALINE PHOSPHATASE” value [1] of the same compound?
The value was 322.83 u/L.

What about the “ASPARTATE AMINOTRANSFERASE” value [1] of the same compound?
The value was 102.67 u/L.

And the “BLOOD UREA NITROGEN” value [1]?
The value was 12 mg/dL.

What about the “CARBON DIOXIDE” value [1] of the same compound?
The value was 34.33 mmol/L.

What about the CHLORIDE [1] of the same compound?
The CHLORIDE was 97.67 MEQ/L.

What about the CHOLESTEROL [1] of the same compound?
The CHOLESTEROL was 82.5 mg/dL.

What about the “CREATINE PHOSPHOKINASE” value [1] of the same compound?
The value was 410.33 u/L.

And the CREATININE [1]?
The CREATININE was 0.18 mg/dL.

What about the GLUCOSE [1] of the same compound?
The GLUCOSE was 164.5 mg/dL.

And the “LACTATE DEHYDROGENASE” value [1]?
Its value is 119.5 u/L.

What about the LIPASE [1] of the same compound?
The LIPASE was 11.83 u/L.

What about the PHOSPHORUS [1] of the same compound?
Its PHOSPHORUS is 9.52 mg/dL.

And the POTASSIUM [1]?
The POTASSIUM was 5.56 MEQ/L.

What about the SODIUM [1] of the same compound?
Its SODIUM is 142.48 MEQ/L.

What about the “TOTAL BILIRUBIN” value [1] of the same compound?
Its value is 0.18 mg/dL.

And the “TOTAL PROTEIN” value [1]?
The value was 5.77 G/DL.

What about the “URIC ACID” value [1] of the same compound?
Its value is 0.48 mg/dL.

What about the “ABSOLUTE BASOPHIL” value [2] of the same compound?
The value was 0 CELLS/uL.

What about the “ABSOLUTE EOSINOPHIL” value [2] of the same compound?
The value was 0 CELLS/uL.

And the “ABSOLUTE LYMPHOCYTE” value [2]?
Its value is 9065 CELLS/uL.

And the “ABSOLUTE MONOCYTE” value [2]?
The value was 341.33 CELLS/uL.

And the “ABSOLUTE SEGMENTED NEUTROPHIL” value [2]?
Its value is 527 CELLS/uL.

What about the BASOPHIL [2] of the same compound?
The BASOPHIL was 0%.

And the EOSINOPHIL [2]?
The EOSINOPHIL was 0%.

What about the “ERYTHROCYTE COUNT” value [2] of the same compound?
Its value is 5.25 x10E6/uL.

What about the HEMATOCRIT [2] of the same compound?
The HEMATOCRIT was 34.08%.

And the HEMOGLOBIN [2]?
Its HEMOGLOBIN is 13.5 G/DL.

And the “LEUKOCYTE COUNT” value [2]?
Its value is 9.93 x10E3/uL.

And the LYMPHOCYTE [2]?
Its LYMPHOCYTE is 91.17%.

And the “MEAN CORPUSCULAR HEMOGLOBIN” value [2]?
The value was 25.7 pg.

What about the “MEAN CORPUSCULAR HEMOGLOBIN CONCENTRATION” value [2] of the same compound?
Its value is 39.62 G/DL.

And the “MEAN CORPUSCULAR VOLUME” value [2]?
Its value is 64.93 fL.

What about the MONOCYTE [2] of the same compound?
The MONOCYTE was 3.33%.

And the NEUTROPHIL [2]?
The NEUTROPHIL was 5.5%.

And the “NUCLEATED RED BLOOD CELLS” value [2]?
The value was 0 /100WBC.

And the “PLATELET COUNT” value [2]?
The value was 1077.5 x10E3/uL.

And the “ALANINE AMINOTRANSFERASE” value [2]?
The value was 57.83 u/L.

And the ALBUMIN [2]?
Its ALBUMIN is 4.07 G/DL.

And the “ALKALINE PHOSPHATASE” value [2]?
The value was 319.17 u/L.

What about the “ASPARTATE AMINOTRANSFERASE” value [2] of the same compound?
The value was 83.33 u/L.

And the “BLOOD UREA NITROGEN” value [2]?
The value was 13.67 mg/dL.

What about the “CARBON DIOXIDE” value [2] of the same compound?
The value was 30.83 mmol/L.

And the CHLORIDE [2]?
Its CHLORIDE is 98.33 MEQ/L.

What about the CHOLESTEROL [2] of the same compound?
The CHOLESTEROL was 64.83 mg/dL.

And the “CREATINE PHOSPHOKINASE” value [2]?
Its value is 263.67 u/L.

And the CREATININE [2]?
Its CREATININE is 0.2 mg/dL.

And the GLUCOSE [2]?
The GLUCOSE was 182.83 mg/dL.

What about the “LACTATE DEHYDROGENASE” value [2] of the same compound?
The value was 124 u/L.

What about the LIPASE [2] of the same compound?
The LIPASE was 10.5 u/L.

And the PHOSPHORUS [2]?
The PHOSPHORUS was 10 mg/dL.

What about the POTASSIUM [2] of the same compound?
The POTASSIUM was 5.78 MEQ/L.

What about the SODIUM [2] of the same compound?
Its SODIUM is 142.48 MEQ/L.

What about the “TOTAL BILIRUBIN” value [2] of the same compound?
Its value is 0.2 mg/dL.

What about the “TOTAL PROTEIN” value [2] of the same compound?
The value was 6 G/DL.

What about the “URIC ACID” value [2] of the same compound?
Its value is 0.7 mg/dL.

What about the “ABSOLUTE BASOPHIL” value [3] of the same compound?
The value was 0 CELLS/uL.

What about the “ABSOLUTE EOSINOPHIL” value [3] of the same compound?
The value was 53.33 CELLS/uL.

And the “ABSOLUTE LYMPHOCYTE” value [3]?
Its value is 14854 CELLS/uL.

What about the “ABSOLUTE MONOCYTE” value [3] of the same compound?
The value was 155 CELLS/uL.

What about the “ABSOLUTE SEGMENTED NEUTROPHIL” value [3] of the same compound?
Its value is 1071 CELLS/uL.

And the BASOPHIL [3]?
The BASOPHIL was 0%.

What about the EOSINOPHIL [3] of the same compound?
Its EOSINOPHIL is 0.33%.

And the “ERYTHROCYTE COUNT” value [3]?
The value was 5.34 x10E6/uL.

What about the HEMATOCRIT [3] of the same compound?
The HEMATOCRIT was 33.73%.

What about the HEMOGLOBIN [3] of the same compound?
The HEMOGLOBIN was 13.07 G/DL.

What about the “LEUKOCYTE COUNT” value [3] of the same compound?
The value was 16.13 x10E3/uL.

What about the LYMPHOCYTE [3] of the same compound?
Its LYMPHOCYTE is 92%.

And the “MEAN CORPUSCULAR HEMOGLOBIN” value [3]?
Its value is 24.43 pg.

And the “MEAN CORPUSCULAR HEMOGLOBIN CONCENTRATION” value [3]?
Its value is 38.7 G/DL.

And the “MEAN CORPUSCULAR VOLUME” value [3]?
Its value is 63.07 fL.

And the MONOCYTE [3]?
Its MONOCYTE is 1%.

What about the NEUTROPHIL [3] of the same compound?
Its NEUTROPHIL is 6.67%.

What about the “NUCLEATED RED BLOOD CELLS” value [3] of the same compound?
The value was 0 /100WBC.

What about the “PLATELET COUNT” value [3] of the same compound?
Its value is 969.67 x10E3/uL.

And the “ALANINE AMINOTRANSFERASE” value [3]?
Its value is 67.33 u/L.

What about the ALBUMIN [3] of the same compound?
The ALBUMIN was 3.93 G/DL.

And the “ALKALINE PHOSPHATASE” value [3]?
Its value is 375.67 u/L.

And the “ASPARTATE AMINOTRANSFERASE” value [3]?
The value was 84.33 u/L.

What about the “BLOOD UREA NITROGEN” value [3] of the same compound?
Its value is 11.33 mg/dL.

And the “CARBON DIOXIDE” value [3]?
The value was 26.67 mmol/L.

What about the CHLORIDE [3] of the same compound?
Its CHLORIDE is 101.33 MEQ/L.

And the CHOLESTEROL [3]?
The CHOLESTEROL was 69.33 mg/dL.

And the “CREATINE PHOSPHOKINASE” value [3]?
The value was 255 u/L.

And the CREATININE [3]?
Its CREATININE is 0.29 mg/dL.

What about the GLUCOSE [3] of the same compound?
The GLUCOSE was 162 mg/dL.

What about the “LACTATE DEHYDROGENASE” value [3] of the same compound?
Its value is 201 u/L.

And the LIPASE [3]?
The LIPASE was 11.67 u/L.

What about the PHOSPHORUS [3] of the same compound?
The PHOSPHORUS was 10.23 mg/dL.

And the POTASSIUM [3]?
Its POTASSIUM is 5.87 MEQ/L.

What about the SODIUM [3] of the same compound?
The SODIUM was 143.83 MEQ/L.

What about the “TOTAL BILIRUBIN” value [3] of the same compound?
The value was 0.2 mg/dL.

What about the “TOTAL PROTEIN” value [3] of the same compound?
The value was 5.6 G/DL.

What about the “URIC ACID” value [3] of the same compound?
The value was 0.93 mg/dL.
